Results from patent US20250043299A1, “POINT MUTATIONS THAT BOOST AROMATIC AMINO ACID PRODUCTION AND CO2 ASSIMILATION IN PLANTS” (Wisconsin Alumni Research Foundation, priority 2021, published 2025).
“Also recorded” adds a separate entry of the source.

Legend:
DHS2^WT [1] = target: T1, DHS2^WT (Arabidopsis thaliana, UniProt Q00218); test: DHS enzyme assay, recombinant DHS2^WT; format: biochemical; conditions: recombinant enzyme; read-out: IC50 of effector molecule on DHS2^WT
T1 construct: without the predicted plastid transit peptide (amino acid residues; 49-525, 34-507, and 52-527, respectively); made in house; host or cells: E. coli Rosetta-2
Experimental: (§1) To generate recombinant DHS proteins the pET28a vectors carrying the A. thaliana DHS1 (AtDHS1), AtDHS2, or AtDHS3 WT sequence without the predicted plastid transit peptide (amino acid residues; 49-525, 34-507, and 52-527, respectively) were expressed in E. coli Rosetta-2 cells and purified using Ni-affinity chromatography, exactly as was conducted previously (9). To generate DHS proteins with individual sota mutations via site-directed mutagenesis, these pET28a plasmid templates were diluted by 500-fold, mixed with 0.04 U/μL Phusion DNA polymerase (Thermo Scientific), 0.2 mM deoxynucleoside triphosphates (dNTPs), 1× Phusion reaction buffer (Thermo Scientific), and 0.5 μM forward and reverse mutagenesis primers (Table 10). The PCR reaction was run using the following protocol: 98° C. for 30 s followed by 20 cycles of 10 s at 98° C., 20 s at 70° C., 4.5 min at 72° C. with a final extension at 72° C. for 10 min. The PCR products were purified using a QIAquick Gel Extraction Kit (QIAGEN), treated with FastDigest DpnI (Thermo Scientific) to digest methylated plasmid template DNA for 20 min at 37° C., and transformed into E. coli cells. The mutagenized pET28a plasmids were sequenced to confirm that no errors were introduced during the mutagenesis process.
The DHS enzyme assays were conducted using the colorimetric method that we recently described (9). Briefly, the enzyme solution (7.7 μl) containing 50 mM Hepes (pH 7.4) was preincubated with an effector molecule(s) at room temperature for 15 min. For assays using recombinant protein and enzyme fractions isolated from plant leaves, 0.01 to 0.1 μg and approximately 50 μg of proteins were used, respectively. After adding 0.5 μl of 0.1 M dithiothreitol, the samples were further incubated at room temperature for 15 min. During these incubations, the substrate solution containing 50 mM Hepes (pH 7.4), 2 mM MnCl2, 4 mM E4P, and 4 mM PEP at final concentration was preheated at 37° C. The enzyme reaction was started by adding 6.8 μl of the substrate solution, then incubated at 37° C. for 30 min, and terminated by adding 30 μl of 0.6 M trichloroacetic acid. After a brief centrifugation, 5 μl of 200 mM NaIO4 (sodium meta-periodate) in 9 N H3PO4 was added to oxidize the enzymatic product and to incubate at 25° C. for 20 min. To stop the oxidation reaction, 20 μl of 0.75 M NaAsO2 (sodium arsenite), which was dissolved in 0.5 M Na2SO4 and 0.05 M H2SO4, was added and immediately mixed. After 5 min of incubation at room temperature, one-third of the sample solution was transferred to a new tube to be mixed with 50 μl of 40 mM thiobarbituric acid and incubated at 99° C. for 15 min in a thermal cycler. The mixture was added to 600 μl of cyclohexanone in eight-strip solvent-resistant plastic tubes, mixed vigorously, and centrifuged at 4500 g for 3 min to separate water- and cyclohexanone-based layers for the extraction off the developed pink chromophore. The absorbance of the pink supernatant was read at 549 nm with the microplate reader (Infinite 200 PRO, TECAN) to calculate DAHP production with the molar extinction coefficient at 549 nm (ε=549 nm) of 4.5×10^4 M^−1 cm^−1. Reaction mixtures with boiled enzymes were run in parallel and used as negative controls to estimate the background signal.

all DHS^WT isoforms = test: DHS enzyme assay, summary over all DHS^WT isoforms; format: biochemical, Arabidopsis thaliana; conditions: for inhibition of all DHS^WT isoforms: FIG. 2D
Experimental: as §1
The DHS enzyme assays were conducted using the colorimetric method that we recently described (9). Briefly, the enzyme solution (7.7 μl) containing 50 mM Hepes (pH 7.4) was preincubated with an effector molecule(s) at room temperature for 15 min. For assays using recombinant protein and enzyme fractions isolated from plant leaves, 0.01 to 0.1 μg and approximately 50 μg of proteins were used, respectively. After adding 0.5 μl of 0.1 M dithiothreitol, the samples were further incubated at room temperature for 15 min. […] The absorbance of the pink supernatant was read at 549 nm with the microplate reader (Infinite 200 PRO, TECAN) to calculate DAHP production with the molar extinction coefficient at 549 nm (ε=549 nm) of 4.5×10^4 M^−1 cm^−1. […]

sota mutant DHS enzymes = test: DHS enzyme assay, sota mutant enzymes compared with corresponding WT enzymes; format: biochemical, Arabidopsis thaliana
Experimental: as §1, with “The PCR products were purified using a QIAquick Gel Extraction Kit (QIAGEN), treated with FastDigest DpnI (Thermo Scientific) to digest methylated plasmid template DNA for 20 min at 37° C., and transformed into E. coli cells. The mutagenized pET28a plasmids were sequenced to confirm that no errors were introduced during the mutagenesis process.” left out
The DHS enzyme assays were conducted using the colorimetric method that we recently described (9). […] The absorbance of the pink supernatant was read at 549 nm with the microplate reader (Infinite 200 PRO, TECAN) to calculate DAHP production with the molar extinction coefficient at 549 nm (ε=549 nm) of 4.5×10^4 M^−1 cm^−1. […]

DHS2^A4 = target: T2, DHS2^A4 (Arabidopsis thaliana, UniProt Q00218, G222S); test: Differential scanning fluorimetry (DSF) protein-ligand affinity analysis, DHS2^A4; format: binding; conditions: ligand at 1 mM
T2 construct: without the predicted plastid transit peptide (amino acid residues; 49-525, 34-507, and 52-527, respectively); made in house; host or cells: E. coli
Experimental: (§2) To examine the impact of the sota mutations on the interaction between DHS and AAA effectors (FIG. 22), a differential scanning fluorimetry (DSF) analysis (48) was conducted using the recombinant DHS2^WT and DHS2^A4 proteins. […] The fluorescence signal was monitored during the stepwise increase in temperature (1° C. per minute from 25° C. to 95° C.). The Tm was calculated by nonlinear regression analysis using the Boltzmann sigmoidal equation (48).

[2] = target: T3, Arabidopsis thaliana DHS2 (AtDHS2), wild type (DHS2^WT), SEQ ID NO:2 (Arabidopsis thaliana, UniProt Q00218); conditions: reference 9; cited from earlier work
T3 construct: without the predicted plastid transit peptide (amino acid residues; 49-525, 34-507, and 52-527, respectively); made in house; host or cells: E. coli Rosetta-2

DHS2^WT [3] = target: T1, DHS2^WT; test: Differential scanning fluorimetry (DSF) protein-ligand affinity analysis, DHS2^WT; format: binding; conditions: ligand at 1 mM
Experimental: as §2

T2 sequence (Q00218 34-507 G222S): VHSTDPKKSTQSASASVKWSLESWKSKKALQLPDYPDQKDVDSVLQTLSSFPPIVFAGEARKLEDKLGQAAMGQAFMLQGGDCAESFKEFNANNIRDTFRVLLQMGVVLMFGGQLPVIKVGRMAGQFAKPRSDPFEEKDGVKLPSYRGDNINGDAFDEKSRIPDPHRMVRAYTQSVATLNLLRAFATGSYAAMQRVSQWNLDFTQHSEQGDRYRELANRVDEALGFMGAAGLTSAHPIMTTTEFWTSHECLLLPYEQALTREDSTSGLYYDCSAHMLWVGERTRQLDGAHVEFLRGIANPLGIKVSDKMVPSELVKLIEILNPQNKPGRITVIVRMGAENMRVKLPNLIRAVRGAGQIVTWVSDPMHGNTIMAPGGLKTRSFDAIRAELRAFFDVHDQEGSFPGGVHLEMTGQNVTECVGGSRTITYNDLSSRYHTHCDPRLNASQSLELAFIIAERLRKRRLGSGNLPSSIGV
T1 sequence (Q00218 34-507): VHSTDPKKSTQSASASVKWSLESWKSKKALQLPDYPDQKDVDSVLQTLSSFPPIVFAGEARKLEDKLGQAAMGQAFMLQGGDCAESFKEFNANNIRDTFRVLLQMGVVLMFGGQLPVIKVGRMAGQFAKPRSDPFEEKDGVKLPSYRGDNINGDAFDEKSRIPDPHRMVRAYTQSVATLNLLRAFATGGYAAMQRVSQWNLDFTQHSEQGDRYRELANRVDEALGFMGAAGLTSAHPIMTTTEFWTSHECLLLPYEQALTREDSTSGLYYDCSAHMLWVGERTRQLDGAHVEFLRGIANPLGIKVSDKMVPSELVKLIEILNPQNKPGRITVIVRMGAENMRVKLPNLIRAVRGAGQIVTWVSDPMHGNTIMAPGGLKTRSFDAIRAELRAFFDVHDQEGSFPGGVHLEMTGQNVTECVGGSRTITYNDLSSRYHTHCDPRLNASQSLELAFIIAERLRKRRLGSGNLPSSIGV
T3 sequence (Q00218 34-507): as above

| Structure (SMILES) | IC50 (DHS2^WT [1]) | inhibition of all DHS^WT isoforms (all DHS^WT isoforms) | IC50 (all DHS^WT isoforms; range over the three isoforms) | increase of IC50 in sota mutant enzymes over corresponding WT enzymes (sota mutant DHS enzymes) | effect on melting temperature (Tm) / binding of DHS2^A4 (DHS2^A4) | inhibition of DHS2 [2] | effect on melting temperature (Tm) of DHS2^WT (DHS2^WT [3]) |
| --- | --- | --- | --- | --- | --- | --- | --- |
| O=C(O)Cc1cc(O)ccc1O [HGA, homogentisate] | 73.9 µM | effectively inhibited | 75 to 250 µM |  |  |  |  |
| O=C(O)C(=O)Cc1ccc(O)cc1 [HPP, 4-Hydroxyphenylpyruvate] |  | effectively inhibited |  | up to 7 fold |  |  |  |
| N[C@@H](Cc1c[nH]c2ccccc12)C(=O)O [Trp, tryptophan] |  |  |  |  | still binds; also recorded: significantly increased the Tm | inhibit Arabidopsis DHS2 | significantly increased the Tm |
